Patent publication US12378203B2, “Imidazole compounds, process for the synthesis and uses thereof” (AHAMMUNE BIOSCIENCES PRIVATE LIMITED, priority 2018, dated 2025)

Experiments:
mouse B16F10 cells = assay: Protection of melanocytes from tunicamycin (ER stress) induced cell death, MTT assay, B16F10; format: cell-based; conditions: for % Recovery: compound at 25-30 μM, 6 h pretreatment, tunicamycin 300 ng/ml, total 72 h, cell growth over tunicamycin treatment; for EC50: Mus musculus, B16-F10, different concentrations of compound along with tunicamycin, GraphPad Prism 7
Experimental: (§1) Compounds synthesized under present invention were tested for their in vitro potency. The potency was tested as their ability to protect melanocytes from ER stress induced cell death. ER stress was caused by the treatment of tunicamycin. The results obtained are summarized in Table-I, Table-II and Table-III for mouse B16F10 cells, human A375 cells and human primary melanocytes respectively. Table-IV and Table-V describes the potency of the compounds in effective concentration 50 (EC50) which means the dose of compound needed to get the 50% of maximum effect.
(§2) For the estimation of potency, mouse B16F10, human A375 or human primary melanocytes (NHEM) cells were pretreated in quadruplicates with these compounds for 6 hours. After 6 hours of incubation, tunicamycin was added at either 300 ng/ml for B16F10 cells or at 100 ng/ml for A375 cells or at 200 ng/ml for NHEM to induce stress mediated cell death and cultured further for a total of 72 hours. The vehicle (DMSO) concentration was kept constant for each well. After 72 hours of treatment, MTT assay was performed to measure the cell growth and vehicle control was kept at 100%. Effect of the treatment of compounds was calculated as cell growth over tunicamycin treatment. For the estimation of Effective Concentration 50 (EC50), cells were treated with different concentration of compounds along with tunicamycin and MTT assay was performed. The EC50 values were calculated by GraphPad Prism 7 software.

human A375 cells = assay: Protection of melanocytes from tunicamycin (ER stress) induced cell death, MTT assay, A375; format: cell-based; conditions: for % Recovery: compound at 25-30 μM, 6 h pretreatment, tunicamycin 100 ng/ml, total 72 h, cell growth over tunicamycin treatment; for EC50: Homo sapiens, A-375, different concentrations of compound along with tunicamycin, GraphPad Prism 7
Experimental: as §1, §2

Structure (SMILES) | % Recovery (mouse B16F10 cells) [%] | % Recovery (human A375 cells) [%] | EC50 (mouse B16F10 cells) [µM] | EC50 (human A375 cells) [µM]
CCCCNC(=O)Cc1c[nH]c(-c2ccc(Cl)cc2)n1 [Compound 004, N-butyl-2-(2-(4-chlorophenyl)-1H-imidazol-4-yl)acetamide] | 22 | 32 | – | –
CCCCCCCC(=O)NCCc1c[nH]c(-c2ccc(Cl)cc2)n1 [Compound 068, N-(2-(2-(4-chlorophenyl)-1H-imidazol-4-yl)ethyl)octanamide] | 21 | 42 | 33.8 | 9
O=C(Cc1c[nH]c(-c2ccc(Cl)cc2)n1)NCCN1CCOCC1 [Compound 003, 2-(2-(4-chlorophenyl)-1H-imidazol-4-yl)-N-(2-morpholinoethyl)acetamide] | 17 | 13 | – | –
Cn1cc(CC(=O)NCCN2CCOCC2)nc1-c1ccc(Cl)cc1 [Compound 006, 2-(2-(4-chlorophenyl)-1-methyl-1H-imidazol-4-yl)-N-(2-morpholinoethyl)acetamide] | 31 | – | – | –
O=C(Cc1c[nH]c(-c2ccc(Cl)cc2)n1)N1CCCC1 [Compound 016, 2-(2-(4-chlorophenyl)-1H-imidazol-4-yl)-1-(pyrrolidin-1-yl)ethan-1-one] | 14 | 17 | – | –
CN1CCN(C(=O)Cc2cn(C)c(-c3ccc(Cl)cc3)n2)CC1 [Compound 021, 2-(2-(4-chlorophenyl)-1-methyl-1H-imidazol-4-yl)-1-(4-methylpiperazin-1-yl)ethan-1-one] | – | – | 55.7 | –
O=C(Cc1c[nH]c(-c2ccc(Cl)cc2)n1)NCCc1ccc(F)cc1 [Compound 001, 2-(2-(4-chlorophenyl)-1H-imidazol-4-yl)-N-(4-fluorophenethyl)acetamide] | 52 | 25 | – | –
O=C(Cc1c[nH]c(-c2ccc(Cl)cc2)n1)N1CCC(F)(F)CC1 [Compound 012, 2-(2-(4-chlorophenyl)-1H-imidazol-4-yl)-1-(4,4-difluoropiperidin-1-yl)ethan-1-one] | 15 | – | – | –
CC(C)OCCCNC(=O)Cc1cn(C)c(-c2ccc(Cl)cc2)n1 [Compound 008, 2-(2-(4-chlorophenyl)-1-methyl-1H-imidazol-4-yl)-N-(3-isopropoxypropyl)acetamide] | 39 | – | – | –
Cn1cc(CC(=O)N2CCCC2)nc1-c1ccc(Cl)cc1 [Compound 017, 2-(2-(4-chlorophenyl)-1-methyl-1H-imidazol-4-yl)-1-(pyrrolidin-1-yl)ethan-1-one] | 29 | – | – | –
O=C(NCCc1c[nH]c(-c2cc(Cl)cc(Cl)c2)n1)c1cc(F)cc(F)c1 [Compound 069, N-(2-(2-(3,5-dichlorophenyl)-1H-imidazol-4-yl)ethyl)-3,5-difluorobenzamide] | – | 88 | – | 1.2
O=C(Cc1c[nH]c(-c2ccc(Cl)cc2)n1)Nc1cccc(C(F)(F)F)c1 [Compound 009, 2-(2-(4-chlorophenyl)-1H-imidazol-4-yl)-N-(3-(trifluoromethyl)phenyl)acetamide] | 36 | – | – | –
Cn1cc(CC(=O)Nc2ccc(F)cc2)nc1-c1ccc(Cl)cc1 [Compound 013, 2-(2-(4-chlorophenyl)-1-methyl-1H-imidazol-4-yl)-N-(4-fluorophenyl)acetamide] | 40 | – | – | –
O=C(Cc1c[nH]c(-c2ccc(Cl)cc2)n1)Nc1ccc(F)cc1 [Compound 011, 2-(2-(4-chlorophenyl)-1H-imidazol-4-yl)-N-(4-fluorophenyl)acetamide] | 18 | – | – | –
CN1CCN(C(=O)Cc2c[nH]c(-c3ccc(Cl)cc3)n2)CC1 [Compound 020, 2-(2-(4-chlorophenyl)-1H-imidazol-4-yl)-1-(4-methylpiperazin-1-yl)ethan-1-one] | 17 | – | – | –
O=C(Cc1c[nH]c(-c2ccc(Cl)cc2)n1)NC1CCCC1 [Compound 019, 2-(2-(4-chlorophenyl)-1H-imidazol-4-yl)-N-cyclopentylacetamide] | 36 | – | – | –
CCCCNC(=O)Cc1cn(C)c(-c2ccc(Cl)cc2)n1 [Compound 005, N-butyl-2-(2-(4-chlorophenyl)-1-methyl-1H-imidazol-4-yl)acetamide] | 38 | – | – | –
